Read-outs that look alike come from different tables or passages of the source.

This experiment deals with soybean plants (variety S20-G7). Nature of the experiment: Reduced plant water use in soybean (foliar spray, repeated weighing of pots). Format: in vivo. To be noted: Glycine max, foliar, Table B1, sprayed at 500 μM, vs negative control. On the procedure: Compounds were tested for their effect on reducing plant water use as follows. Each compound was dissolved in a blank emulsifiable concentrate (EC) formulation that was then diluted to the desired concentration with water containing additional surfactant (EXTRAVON 1 g/20 L). The compounds were applied by foliar spray to 12 day old soybean plants (variety S20-G7) grown in controlled environment plant growth chambers. Plant water use during the day was assessed by repeated weighing of the pots in which the plants were grown before and after application of the compounds at the indicated times (expressed in days after application (DAA)). The water use data before application was used to correct any differences in water use arising due to non-treatment effects (e.g. due to differences in plant size). The untransformed water use values were subjected to an analysis of covariance, fitting the effect of treatment and using the baseline water use 1 day before application as a covariate.
The results are expressed compared to negative control treatment (diluted EC formulation without active ingredient but with EXTRAVON 1 g/20 L).
Application of the chemicals (0 DAA) takes place approximately between 08:00 and 09:30 a.m. WU is measured within day time (chamber light is on 06:00 to 20:00) at these timepoints: 0 DAA a.m. (10:30-12:50), 0 DAA p.m. (14:00-19:50), 1 DAA a.m. (7:30-12:50), 1 DAA p.m. (14:00-19:50), 2 DAA a.m. (07:30-12:50) and 2 DAA p.m. (14:00-19:50). The cumulative total WU (0-2.5 DAA) is calculated by summing the WU data mentioned above.

[1] abbreviates: 0 h, 0 DAA a.m. (10:30-12:50), read-out: % WU 0 DAA AM.
[2] abbreviates: 24 h, 1 DAA a.m. (7:30-12:50), read-out: % WU 1DAA AM.
[3] abbreviates: 24 h, 1 DAA p.m. (14:00-19:50), read-out: % WU 1DAA PM.
[4] abbreviates: 48 h, 2 DAA a.m. (07:30-12:50), read-out: % WU 2 DAA AM.
Where [5] appears, read: 48 h, 2 DAA p.m. (14:00-19:50), read-out: % WU 2 DAA PM.
Setting [6] is: 60 h, cumulative total WU (0-2.5 DAA), read-out: % WU Total 0 to 2.5 DAA.

Turning to `C=CCN1C(=O)CCc2cc(CNS(=O)(=O)c3ccccc3)ccc21` [Compound 5.001, N-[(1-allyl-2-oxo-3,4-dihydroquinolin-6-yl)methyl]benzenesulfonamide], the change in vivo at 500 µM under setting [1] was -15.1%; the change in vivo at 500 µM under setting [2] is -18.7%; the change in vivo at 500 µM under setting [3] was -17.4%; the change in vivo at 500 µM under setting [4] is -16.5%; the change in vivo at 500 µM under setting [5] was -15.6%; the change in vivo at 500 µM under setting [6] was -17.1%.
Take `C=CCN1C(=O)CCc2cc(CNS(=O)(=O)c3ccc(F)cc3F)ccc21` [Compound 5.006, N-[(1-allyl-2-oxo-3,4-dihydroquinolin-6-yl)methyl]-2,4-difluoro-benzenesulfonamide]: the change in vivo at 500 µM is -13.6% under setting [1]; -12.5% under setting [2]; -11.5% under setting [3]; -9.7% under setting [4]; -9.9% under setting [5]; -11.4% under setting [6].
For the compound `CCCn1c(=O)ccc2cc(CNS(=O)(=O)c3ccc(F)cc3F)ccc21` [Compound 7.006, 2,4-difluoro-N-[(2-oxo-1-propyl-6-quinolyl)methyl]benzenesulfonamide], the change in vivo at 500 µM runs as follows: under setting [1], -14.6%; under setting [2], -6.7%; under setting [3], -4.2%; under setting [4], -4.2%; under setting [5], 0%; under setting [6], -6.1%.
Take `CCCn1c(=O)ccc2cc(CNS(=O)(=O)c3ccc(F)cc3)ccc21` [Compound 7.009, 4-fluoro-N-[(2-oxo-1-propyl-6-quinolyl)methyl]benzenesulfonamide]: the change in vivo at 500 µM is, setting by setting: under setting [1], -8.1%; under setting [2], -3.6%; under setting [3], -3.5%; under setting [4], -4%; under setting [5], -1.7%; under setting [6], -4.1%.
Turning to `O=C1CCc2cc(CNS(=O)(=O)c3ccccc3)ccc2N1CC1CC1` [Compound 10.001, N-[[1-(cyclopropylmethyl)-2-oxo-3,4-dihydroquinolin-6-yl]methyl]benzenesulfonamide], the change in vivo at 500 µM by setting is: under setting [1], -25.2%; under setting [2], -23.8%; under setting [3], -22.7%; under setting [4], -14.9%; under setting [5], -14.7%; under setting [6], -20.8%.
As for `O=C1CCc2cc(CNS(=O)(=O)c3ccc(F)cc3F)ccc2N1CC1CC1` [Compound 10.006, N-[[1-(cyclopropylmethyl)-2-oxo-3,4-dihydroquinolin-6-yl]methyl]-2,4-difluoro-benzenesulfonamide], the change in vivo at 500 µM was -22.4% under setting [1]; -18.5% under setting [2]; -18.2% under setting [3]; -16.9% under setting [4]; -17.8% under setting [5]; -18.6% under setting [6].
`O=C1CCc2cc(CNS(=O)(=O)c3ccccc3)ccc2N1CC(F)(F)F` [Compound 11.001, N-[[2-oxo-1-(2,2,2-trifluoroethyl)-3,4-dihydroquinolin-6-yl]methyl]benzenesulfonamide]: the change in vivo at 500 µM is, setting by setting: under setting [1], -20.8%; under setting [2], -26.2%; under setting [3], -27.6%; under setting [4], -26.9%; under setting [5], -26.9%; under setting [6], -26.1%.
On to `O=C1CCc2cc(CNS(=O)(=O)c3ccc(F)cc3F)ccc2N1CC(F)(F)F` [Compound 11.006, 2,4-difluoro-N-[[2-oxo-1-(2,2,2-trifluoroethyl)-3,4-dihydroquinolin-6-yl]methyl]benzenesulfonamide], for which the change in vivo at 500 µM runs as follows: under setting [1], -13%; under setting [2], -15.3%; under setting [3], -15.7%; under setting [4], -16.4%; under setting [5], -16.5%; under setting [6], -15.8%.
For the compound `COCCN1C(=O)CCc2cc(CNS(=O)(=O)c3ccccc3)ccc21` [Compound 13.001, N-[[1-(2-methoxyethyl)-2-oxo-3,4-dihydroquinolin-6-yl]methyl]benzenesulfonamide], the change in vivo at 500 µM is -15.1% under setting [1]; -11% under setting [2]; -11% under setting [3]; -8.9% under setting [4]; -9.2% under setting [5]; -11.1% under setting [6].
On to `COCCN1C(=O)CCc2cc(CNS(=O)(=O)c3ccc(F)cc3F)ccc21` [Compound 13.006, 2,4-difluoro-N-[[1-(2-methoxyethyl)-2-oxo-3,4-dihydroquinolin-6-yl]methyl]benzenesulfonamide], for which the change in vivo at 500 µM under setting [1] is -9.8%; the change in vivo at 500 µM under setting [2] is -9.3%; the change in vivo at 500 µM under setting [3] is -10.1%; the change in vivo at 500 µM under setting [4] was -9.6%; the change in vivo at 500 µM under setting [5] was -10.3%; the change in vivo at 500 µM under setting [6] was -10.1%.
For `CCN1C(=O)CC(C)c2cc(CNS(=O)(=O)c3ccccc3)cc(C)c21` (stereo not drawn) [Compound 16.001, N-[(1-ethyl-4,8-dimethyl-2-oxo-3,4-dihydroquinolin-6-yl)methyl]benzenesulfonamide], the change in vivo at 500 µM under setting [1] was -39%; the change in vivo at 500 µM under setting [2] was -49%; the change in vivo at 500 µM under setting [3] is -48.1%; the change in vivo at 500 µM under setting [4] is -45.7%; the change in vivo at 500 µM under setting [5] is -44.5%; the change in vivo at 500 µM under setting [6] was -46%.
For `CCCN1C(=O)CCc2cc(CNS(=O)(=O)c3ccccc3)cc(F)c21` [Compound 17.001, N-[(8-fluoro-2-oxo-1-propyl-3,4-dihydroquinolin-6-yl)methyl]benzenesulfonamide], the change in vivo at 500 µM by setting is: under setting [1], -41.6%; under setting [2], -38%; under setting [3], -36.3%; under setting [4], -27.1%; under setting [5], -26.3%; under setting [6], -34.7%.
As for `CCN1C(=O)CC(C)c2cc(CNS(=O)(=O)c3ccccc3)cc(F)c21` (stereo not drawn) [Compound 22.001, N-[(1-ethyl-8-fluoro-4-methyl-2-oxo-3,4-dihydroquinolin-6-yl)methyl]benzenesulfonamide], the change in vivo at 500 µM runs as follows: under setting [1], -46.1%; under setting [2], -55.8%; under setting [3], -53%; under setting [4], -55.1%; under setting [5], -50.1%; under setting [6], -52.1%.
On to `CC1CC(=O)N(CC(F)(F)F)c2ccc(CNS(=O)(=O)c3ccccc3)cc21` (stereo not drawn) [Compound 23.001, N-[[4-methyl-2-oxo-1-(2,2,2-trifluoroethyl)-3,4-dihydroquinolin-6-yl]methyl]benzenesulfonamide], for which the change in vivo at 500 µM is, setting by setting: under setting [1], -31.3%; under setting [2], -39.7%; under setting [3], -40.8%; under setting [4], -35.9%; under setting [5], -37.3%; under setting [6], -37.7%.
